Experiment [1] addresses Beta-2 adrenergic receptor (Homo sapiens, UniProt P07550). Briefly: Selectivity interaction (Panel of kinases, GPCRs, ion channels and transporters (enzymatic assay)) EUB0000266bCl ADRB2.
In experiment [2] the target is T1, Activin receptor type-1B (Homo sapiens) (UniProt P36896).
T1 sequence (whole entry): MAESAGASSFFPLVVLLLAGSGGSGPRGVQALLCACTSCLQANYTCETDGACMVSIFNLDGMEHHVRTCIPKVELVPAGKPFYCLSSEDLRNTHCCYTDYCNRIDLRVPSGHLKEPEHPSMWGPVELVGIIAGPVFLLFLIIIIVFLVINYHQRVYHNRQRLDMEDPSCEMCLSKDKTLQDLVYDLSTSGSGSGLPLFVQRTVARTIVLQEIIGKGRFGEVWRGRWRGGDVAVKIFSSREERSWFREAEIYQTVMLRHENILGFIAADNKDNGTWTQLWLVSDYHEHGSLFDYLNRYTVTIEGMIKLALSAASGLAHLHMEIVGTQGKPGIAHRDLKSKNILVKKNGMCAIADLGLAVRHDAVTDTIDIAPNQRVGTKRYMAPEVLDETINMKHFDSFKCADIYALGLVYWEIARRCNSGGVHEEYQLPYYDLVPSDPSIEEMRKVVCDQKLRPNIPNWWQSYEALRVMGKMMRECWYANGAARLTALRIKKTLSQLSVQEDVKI
The experiment is described as follows: Selectivity interaction (Upstate Kinase Profiler service (Millipore)) EUB0000056c ACVR1B. The settings on record: at 1 µM.

Experiment [3] deals with RAC-alpha serine/threonine-protein kinase (Homo sapiens, UniProt P31749). Briefly: Selectivity interaction (Upstate Kinase Profiler service (Millipore)) EUB0000056c AKT1. The settings on record: at 1 µM.
The target in experiment [4] is T2, Dual specificity mitogen-activated protein kinase kinase 4 (Homo sapiens) (UniProt P45985).
T2 sequence (whole entry): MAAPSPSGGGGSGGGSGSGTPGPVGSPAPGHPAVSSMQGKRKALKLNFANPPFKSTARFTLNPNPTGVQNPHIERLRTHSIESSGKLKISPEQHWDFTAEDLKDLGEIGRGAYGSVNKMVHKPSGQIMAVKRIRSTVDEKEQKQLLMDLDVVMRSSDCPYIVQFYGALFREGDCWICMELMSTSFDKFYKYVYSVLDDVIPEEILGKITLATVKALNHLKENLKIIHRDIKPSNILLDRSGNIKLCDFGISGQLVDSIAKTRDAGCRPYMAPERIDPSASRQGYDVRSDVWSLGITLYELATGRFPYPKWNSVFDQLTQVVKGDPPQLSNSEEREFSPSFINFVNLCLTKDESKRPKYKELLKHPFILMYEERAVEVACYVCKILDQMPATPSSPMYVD
The experiment is described as follows: Selectivity interaction (Kinase panel (DSF assay)) EUB0001558a MAP2K4.

In experiment [5] the target is T3, Discoidin domain-containing receptor 2 (Homo sapiens) (UniProt Q16832).
T3 sequence (whole entry): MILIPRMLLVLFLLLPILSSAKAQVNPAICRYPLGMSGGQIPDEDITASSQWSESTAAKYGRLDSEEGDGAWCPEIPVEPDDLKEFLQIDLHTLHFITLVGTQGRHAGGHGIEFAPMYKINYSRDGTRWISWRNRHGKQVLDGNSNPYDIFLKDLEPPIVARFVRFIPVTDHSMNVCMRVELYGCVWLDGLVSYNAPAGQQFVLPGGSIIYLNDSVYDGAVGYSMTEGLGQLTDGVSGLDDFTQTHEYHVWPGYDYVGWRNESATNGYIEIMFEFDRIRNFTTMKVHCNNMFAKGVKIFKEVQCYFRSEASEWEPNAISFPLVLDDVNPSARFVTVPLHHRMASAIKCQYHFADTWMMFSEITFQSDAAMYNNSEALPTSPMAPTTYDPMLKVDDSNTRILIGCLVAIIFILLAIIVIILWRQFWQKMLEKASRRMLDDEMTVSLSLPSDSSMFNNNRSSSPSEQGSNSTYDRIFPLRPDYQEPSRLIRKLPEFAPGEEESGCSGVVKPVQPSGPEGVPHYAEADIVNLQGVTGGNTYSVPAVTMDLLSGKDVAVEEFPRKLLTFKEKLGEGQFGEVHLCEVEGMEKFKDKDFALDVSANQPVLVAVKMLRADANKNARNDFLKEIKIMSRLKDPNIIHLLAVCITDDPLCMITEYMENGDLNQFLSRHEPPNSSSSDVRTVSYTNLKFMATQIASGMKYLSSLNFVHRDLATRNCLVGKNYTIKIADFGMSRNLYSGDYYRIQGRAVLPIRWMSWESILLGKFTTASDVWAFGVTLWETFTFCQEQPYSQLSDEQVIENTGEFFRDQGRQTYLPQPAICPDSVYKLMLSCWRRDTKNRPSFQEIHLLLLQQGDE
Conditions: at 10 µM.

Experiment [6] concerns the target RAF proto-oncogene serine/threonine-protein kinase (Homo sapiens) (UniProt P04049). The settings on record: at 10 µM.
Experiment [7] concerns Epidermal growth factor receptor (Homo sapiens), P00533 [UNDEFINED MUTATION]. The experiment is described as follows: Selectivity interaction (KinomeScan (DiscoverX)) EUB0001079a EGFR. Conditions: at 1 µM.
In experiment [8] the target is MAP kinase-interacting serine/threonine-protein kinase 2 (Homo sapiens, UniProt Q9HBH9). The experiment is described as follows: Selectivity interaction (KinomeScan (DiscoverX)) EUB0001049a MKNK2. The settings on record: at 1 µM.
Experiment [9] deals with Calcium/calmodulin-dependent protein kinase kinase 1 (Homo sapiens) (UniProt Q8N5S9). Briefly: Selectivity interaction (KinomeScan (DiscoverX)) EUB0000666a CAMKK1. The settings on record: at 10 µM.
The target in experiment [10] is Platelet-derived growth factor receptor alpha (Homo sapiens, UniProt P16234). Briefly: Selectivity interaction (KinomeScan (DiscoverX)) EUB0000666a PDGFRA. Conditions: at 10 µM.
Experiment [11] addresses Protein kinase C beta type (Homo sapiens, UniProt P05771). Briefly: Selectivity interaction (Kinase panel (Z-LYTE Assay)) EUB0001632a PRKCB. Conditions: at 10 µM.
The target in experiment [12] is Cyclin-dependent kinase 17 (Homo sapiens) (UniProt Q00537). The experiment is described as follows: Selectivity interaction (KinomeScan (DiscoverX)) EUB0000607a CDK17. The settings on record: at 10 µM.
For experiment [13], the target named is 5'-AMP-activated protein kinase catalytic subunit alpha-1 (Homo sapiens, UniProt Q13131). The experiment is described as follows: Selectivity interaction (Kinase panel (Invitrogen)) EUB0000639a PRKAA1. The settings on record: at 200 nM.
In experiment [14] the target is Cyclin-dependent kinase 5/CDK5 activator 1 (Homo sapiens) (UniProt Q00535+Q15078). Briefly: Selectivity interaction (Kinase panel (Invitrogen)) EUB0000639a CDK5. Conditions: at 200 nM. The class given is protein-complex assay.
Experiment [15] concerns the target Cell division cycle 7-related protein kinase (Homo sapiens, UniProt O00311). The experiment is described as follows: Selectivity interaction (Kinase panel (Enzyme activity assay)) EUB0000612a CDC7.
Experiment [16] deals with Insulin receptor-related protein (Homo sapiens) (UniProt P14616). Briefly: Selectivity interaction (KinomeScan (DiscoverX)) EUB0000229b INSRR. Conditions: at 10 µM.
For experiment [17], the target named is Putative phosphatidylinositol 4-kinase alpha-like protein P2 (Homo sapiens) (UniProt A4QPH2). The experiment is described as follows: Selectivity interaction (ActivX KiNativ screen (ex vivo kinase selectivity in human PBMCs)) EUB0001619a PI4KAP2. The class given is cell-based. Conditions: PBMC, at 1 µM.
Chain of Putative phosphatidylinositol 4-kinase alpha-like protein P2 (Homo sapiens) (A4QPH2 whole entry): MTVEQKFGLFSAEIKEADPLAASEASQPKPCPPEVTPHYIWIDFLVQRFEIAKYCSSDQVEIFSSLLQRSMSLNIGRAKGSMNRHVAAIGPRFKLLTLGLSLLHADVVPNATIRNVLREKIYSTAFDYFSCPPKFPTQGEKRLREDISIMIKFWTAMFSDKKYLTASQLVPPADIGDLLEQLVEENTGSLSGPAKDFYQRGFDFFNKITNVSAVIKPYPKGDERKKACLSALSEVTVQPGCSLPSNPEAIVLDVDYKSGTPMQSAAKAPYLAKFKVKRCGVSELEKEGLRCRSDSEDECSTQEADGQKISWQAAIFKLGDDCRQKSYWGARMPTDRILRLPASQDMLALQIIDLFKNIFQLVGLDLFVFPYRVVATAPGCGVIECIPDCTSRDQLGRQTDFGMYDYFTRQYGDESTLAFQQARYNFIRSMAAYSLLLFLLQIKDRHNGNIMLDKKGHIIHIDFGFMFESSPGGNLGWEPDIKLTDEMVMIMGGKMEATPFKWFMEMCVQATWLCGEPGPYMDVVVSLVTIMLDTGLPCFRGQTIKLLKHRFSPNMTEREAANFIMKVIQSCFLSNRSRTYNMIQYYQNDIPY

Chain of Cyclin-dependent kinase 5/CDK5 activator 1 (Homo sapiens) (Q00535 whole entry): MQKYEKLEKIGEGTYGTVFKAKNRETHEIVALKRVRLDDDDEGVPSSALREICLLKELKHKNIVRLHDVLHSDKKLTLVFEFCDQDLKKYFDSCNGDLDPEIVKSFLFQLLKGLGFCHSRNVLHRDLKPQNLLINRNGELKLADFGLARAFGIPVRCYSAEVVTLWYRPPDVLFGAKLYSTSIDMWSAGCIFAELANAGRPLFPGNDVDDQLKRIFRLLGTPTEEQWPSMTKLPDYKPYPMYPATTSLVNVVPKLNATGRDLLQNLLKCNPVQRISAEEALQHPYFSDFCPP
Chain of Cyclin-dependent kinase 5/CDK5 activator 1 (Homo sapiens) (Q15078 99-307 partner limits assumed): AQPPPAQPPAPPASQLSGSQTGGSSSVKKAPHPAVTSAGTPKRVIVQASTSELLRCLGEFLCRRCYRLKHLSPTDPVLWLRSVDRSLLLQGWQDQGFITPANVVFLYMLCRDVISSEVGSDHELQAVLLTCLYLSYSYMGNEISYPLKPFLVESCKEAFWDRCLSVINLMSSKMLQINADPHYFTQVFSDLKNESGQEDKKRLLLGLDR
Chain of Cyclin-dependent kinase 17 (Homo sapiens) (Q00537 whole entry, looked up): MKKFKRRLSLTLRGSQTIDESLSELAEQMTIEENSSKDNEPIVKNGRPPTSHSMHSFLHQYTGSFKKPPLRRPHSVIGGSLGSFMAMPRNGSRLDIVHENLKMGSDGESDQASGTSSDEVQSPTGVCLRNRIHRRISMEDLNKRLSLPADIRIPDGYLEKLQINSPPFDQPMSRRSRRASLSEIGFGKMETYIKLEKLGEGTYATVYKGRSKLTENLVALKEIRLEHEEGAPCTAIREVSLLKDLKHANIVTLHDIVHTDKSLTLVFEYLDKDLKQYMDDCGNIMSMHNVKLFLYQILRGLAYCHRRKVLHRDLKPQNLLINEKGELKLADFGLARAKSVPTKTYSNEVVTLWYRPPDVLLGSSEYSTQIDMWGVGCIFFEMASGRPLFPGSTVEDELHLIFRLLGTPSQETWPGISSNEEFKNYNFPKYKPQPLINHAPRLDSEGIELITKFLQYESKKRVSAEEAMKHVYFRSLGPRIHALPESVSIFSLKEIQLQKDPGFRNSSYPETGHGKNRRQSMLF
Chain of Beta-2 adrenergic receptor (P07550 whole entry, looked up): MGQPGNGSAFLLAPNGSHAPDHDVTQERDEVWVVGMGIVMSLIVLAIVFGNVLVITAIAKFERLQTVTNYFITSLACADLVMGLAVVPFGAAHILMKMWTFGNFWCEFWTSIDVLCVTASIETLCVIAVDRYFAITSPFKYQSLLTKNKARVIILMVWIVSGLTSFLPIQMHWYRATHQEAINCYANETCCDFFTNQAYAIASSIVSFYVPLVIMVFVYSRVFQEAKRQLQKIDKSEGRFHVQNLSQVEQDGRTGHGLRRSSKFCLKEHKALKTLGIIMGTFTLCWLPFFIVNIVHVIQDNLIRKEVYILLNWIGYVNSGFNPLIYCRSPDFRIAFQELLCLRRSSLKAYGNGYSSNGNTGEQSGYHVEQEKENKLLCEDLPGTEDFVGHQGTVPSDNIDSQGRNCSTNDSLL
Chain of MAP kinase-interacting serine/threonine-protein kinase 2 (Q9HBH9 whole entry, looked up): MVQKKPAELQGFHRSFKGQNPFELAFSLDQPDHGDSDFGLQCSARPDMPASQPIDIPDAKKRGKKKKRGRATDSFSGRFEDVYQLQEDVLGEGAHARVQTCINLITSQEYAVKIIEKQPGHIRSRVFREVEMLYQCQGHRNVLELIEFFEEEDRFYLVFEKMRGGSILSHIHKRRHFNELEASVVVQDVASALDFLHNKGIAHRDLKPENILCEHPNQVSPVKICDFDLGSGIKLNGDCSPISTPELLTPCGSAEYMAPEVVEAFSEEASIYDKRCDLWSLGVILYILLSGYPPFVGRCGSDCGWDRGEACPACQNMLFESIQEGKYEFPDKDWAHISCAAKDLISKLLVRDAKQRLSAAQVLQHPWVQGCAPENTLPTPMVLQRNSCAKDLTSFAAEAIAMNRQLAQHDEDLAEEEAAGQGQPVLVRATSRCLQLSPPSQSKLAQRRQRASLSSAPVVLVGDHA
Chain of RAC-alpha serine/threonine-protein kinase (P31749 whole entry): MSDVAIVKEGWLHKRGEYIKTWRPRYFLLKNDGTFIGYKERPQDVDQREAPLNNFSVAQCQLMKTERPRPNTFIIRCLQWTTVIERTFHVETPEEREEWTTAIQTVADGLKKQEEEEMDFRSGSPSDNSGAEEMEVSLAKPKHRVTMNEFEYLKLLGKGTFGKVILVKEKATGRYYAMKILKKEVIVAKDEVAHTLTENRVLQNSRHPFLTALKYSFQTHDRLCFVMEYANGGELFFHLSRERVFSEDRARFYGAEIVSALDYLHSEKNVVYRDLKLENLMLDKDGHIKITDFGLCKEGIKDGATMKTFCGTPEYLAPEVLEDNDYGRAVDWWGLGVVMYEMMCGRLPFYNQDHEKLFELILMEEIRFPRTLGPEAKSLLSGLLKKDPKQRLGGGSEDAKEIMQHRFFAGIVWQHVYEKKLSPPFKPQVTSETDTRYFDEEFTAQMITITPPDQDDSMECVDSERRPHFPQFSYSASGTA
Chain of Protein kinase C beta type (P05771 2-671 limits assumed): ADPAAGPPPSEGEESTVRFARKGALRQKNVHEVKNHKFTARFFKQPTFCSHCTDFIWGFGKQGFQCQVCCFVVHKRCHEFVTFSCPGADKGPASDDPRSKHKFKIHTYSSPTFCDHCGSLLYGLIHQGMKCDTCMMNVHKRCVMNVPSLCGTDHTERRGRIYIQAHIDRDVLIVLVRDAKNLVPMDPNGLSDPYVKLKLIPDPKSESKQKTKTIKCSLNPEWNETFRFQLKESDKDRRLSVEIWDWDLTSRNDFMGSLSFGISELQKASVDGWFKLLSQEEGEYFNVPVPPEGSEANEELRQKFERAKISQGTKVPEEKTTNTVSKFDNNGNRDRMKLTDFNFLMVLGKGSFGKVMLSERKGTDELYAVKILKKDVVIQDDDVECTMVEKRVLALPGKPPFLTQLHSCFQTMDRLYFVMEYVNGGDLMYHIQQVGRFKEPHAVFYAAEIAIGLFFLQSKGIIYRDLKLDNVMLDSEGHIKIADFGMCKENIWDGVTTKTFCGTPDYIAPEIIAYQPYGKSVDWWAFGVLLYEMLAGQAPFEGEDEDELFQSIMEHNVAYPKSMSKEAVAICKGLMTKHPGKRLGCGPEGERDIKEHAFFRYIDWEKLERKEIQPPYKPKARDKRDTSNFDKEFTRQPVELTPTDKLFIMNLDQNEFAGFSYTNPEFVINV
Chain of Platelet-derived growth factor receptor alpha (P16234 whole entry): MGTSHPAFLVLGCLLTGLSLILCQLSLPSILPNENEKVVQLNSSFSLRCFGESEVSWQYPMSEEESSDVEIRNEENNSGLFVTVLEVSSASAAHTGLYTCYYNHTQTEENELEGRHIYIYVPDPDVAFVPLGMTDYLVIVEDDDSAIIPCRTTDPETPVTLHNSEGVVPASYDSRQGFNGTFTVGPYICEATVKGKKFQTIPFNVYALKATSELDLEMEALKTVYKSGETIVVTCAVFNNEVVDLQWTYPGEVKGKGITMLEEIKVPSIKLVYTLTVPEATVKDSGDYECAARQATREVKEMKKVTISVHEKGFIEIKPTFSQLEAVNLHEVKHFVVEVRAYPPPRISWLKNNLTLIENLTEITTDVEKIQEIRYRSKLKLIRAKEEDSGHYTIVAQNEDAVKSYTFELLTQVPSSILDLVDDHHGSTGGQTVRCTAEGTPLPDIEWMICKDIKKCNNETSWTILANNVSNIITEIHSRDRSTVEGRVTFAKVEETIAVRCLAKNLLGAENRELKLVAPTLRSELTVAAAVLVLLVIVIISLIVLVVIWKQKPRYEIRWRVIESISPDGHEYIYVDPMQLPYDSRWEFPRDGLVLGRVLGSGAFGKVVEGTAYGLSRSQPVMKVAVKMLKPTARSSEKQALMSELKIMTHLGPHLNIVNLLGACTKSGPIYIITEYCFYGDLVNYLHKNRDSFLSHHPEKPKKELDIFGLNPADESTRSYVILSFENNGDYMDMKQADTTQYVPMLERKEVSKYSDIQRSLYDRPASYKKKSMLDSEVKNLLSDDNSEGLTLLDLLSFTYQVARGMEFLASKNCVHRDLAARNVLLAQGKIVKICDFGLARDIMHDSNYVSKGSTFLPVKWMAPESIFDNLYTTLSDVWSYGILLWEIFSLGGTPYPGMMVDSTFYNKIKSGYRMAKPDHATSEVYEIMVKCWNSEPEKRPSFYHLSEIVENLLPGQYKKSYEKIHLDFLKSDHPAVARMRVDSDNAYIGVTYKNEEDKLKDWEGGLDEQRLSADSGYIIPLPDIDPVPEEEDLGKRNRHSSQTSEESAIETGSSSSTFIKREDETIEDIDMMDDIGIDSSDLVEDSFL

Consider `CCn1c(-c2nc3cc(C(=O)N4CCCC(N)C4)ccc3n2C)cc2ccccc21` (configuration not stated), for which, in [1], the pXC50 is under 4.5 M.

Consider `Cc1ccc(-c2ccc3c(ccc4sc5c(c43)NC[C@@H](C)NC5=O)n2)cn1`, for which the % of inhibition in [2] came to 9%; in experiment [3], 5%.

Turning to `CC(C)(O)[C@H](F)CN1Cc2cc(NC(=O)c3cnn4cccnc34)c(N3CCOCC3)cc2C1=O`, the dTM in [4] was determined as 0.9 K.

Take `CCN(CC)CCCCNc1ncc2cc(-c3cc(OC)cc(OC)c3)c(NC(=O)NC(C)(C)C)nc2n1`: the % of control in [5] and in experiment [6] was 100% each time.

The molecule `Nc1cnc(N2CCc3cc(S(=O)(=O)Nc4c(F)cc(Cl)cc4F)cc(N4CCCC4=O)c32)nc1` [TP-020n] gave a % of control in experiment [7] of 100%.

Turning to `COc1cc(Nc2nc(C)cc(-c3cnn4nc(OC)ccc34)n2)cc(C(F)(F)F)c1`, the % of control in experiment [8] came to 78%.

Take `O=C(NOC[C@H](O)CO)c1ccc(F)c(F)c1Nc1ccc(I)cc1F`: the % of control in experiment [9] is 100%; in experiment [10] it was 96%.

On to `Cn1cc(-n2cnc3c(NCc4nc5cc(Cl)c(Cl)cc5[nH]4)nc(N4CCOCC4)nc32)cn1`, for which the % of control in [11] turned out to be 15.6%.

For the molecule `CNC(=O)Nc1ccc(-c2nc(N3CC4CCC(C3)O4)c3cnn(C4CCC5(CC4)OCCO5)c3n2)cc1`, the % of control in experiment [12] was found to be 100%.

Consider `CC[C@@H]1[C@H](F)C(=O)N[C@@H]1COc1nccc2cc(C(N)=O)c(OC)cc12` [ZIMLOVISERTIB], for which the figures for the % of inhibition in experiment [13] and in experiment [14] were 11% and 2.19%, respectively.

What is called IC50 is the concentration that inhibits the measured activity by half. High values mean weaker potency in that assay, low ones greater potency in that assay. As to `CCc1cccc(CC)c1NC(=O)c1nn(C)c2c1CCc1cnc(Nc3ccc(C(=O)NC4CCN(C)CC4)cc3OC(F)(F)F)nc1-2`, the IC50 in experiment [15] was over 10 µM.

On to `COc1cc(N(C)c2ccnc3ccc(C(F)(F)F)cc23)cc(OC)c1OC`, for which, in experiment [16], the % binding is 76%.

In [17], `N#Cc1cccc(-c2c[nH]c3ncnc(N4CCOCC4)c23)c1` yielded a % of inhibition of 6%.

The values above are taken from ChEMBL document CHEMBL5465560, “Selectivity Literature for EUbOPEN Chemogenomic Library” (2024).
